± gives the uncertainty stated by the source.
Experiment: xn = mol fraction of the nth substance listed

N#Cc1ccccc1 + COc1ccccc1
viscosity [mPa·s], 101.33 kPa
Conditions | x2 = 0.0923 | x2 = 0.1792 | x2 = 0.2764 | x2 = 0.3719 | x2 = 0.4735 | x2 = 0.6068 | x2 = 0.7036 | x2 = 0.808 | x2 = 0.8989
293.15 K | 1.315 ± 0.069 | 1.3 ± 0.068 | 1.27 ± 0.067 | 1.235 ± 0.065 | 1.191 ± 0.062 | 1.164 ± 0.061 | 1.149 ± 0.06 | 1.134 ± 0.06 | 1.119 ± 0.059
298.15 K | 1.226 ± 0.064 | 1.201 ± 0.063 | 1.181 ± 0.062 | 1.142 ± 0.06 | 1.122 ± 0.059 | 1.088 ± 0.057 | 1.079 ± 0.057 | 1.056 ± 0.055 | 1.036 ± 0.054

NNc1ccccc1 + COc1ccccc1O
303.15 K, 101 kPa
Conditions | viscosity [mPa·s]
x1 = 0.1 | 5.95 ± 0.16
x1 = 0.2 | 8.21 ± 0.22
x1 = 0.3 | 10.92 ± 0.3
x1 = 0.4 | 13.15 ± 0.36
x1 = 0.45 | 14.65 ± 0.41
x1 = 0.5 | 15.26 ± 0.43
x1 = 0.6 | 15.77 ± 0.44
x1 = 0.667 | 16.06 ± 0.45
x1 = 0.7 | 15.54 ± 0.43
x1 = 0.8 | 14.08 ± 0.39
x1 = 0.9 | 12.33 ± 0.34

C[C@H]1CCCC[C@H]1O + C[C@@H]1CCCC[C@H]1O
viscosity [mPa·s], 101 kPa
Conditions | x1 = 0.199 | x1 = 0.302 | x1 = 0.399 | x1 = 0.598 | x1 = 0.691 | x1 = 0.798
298.15 K | 29.88 ± 0.39 | 27.1 ± 0.35 | 24.51 ± 0.32 | 20.97 ± 0.27 | 19.75 ± 0.25 | 18.87 ± 0.24
303.15 K | 20.72 ± 0.3 | 19.03 ± 0.27 | 17.37 ± 0.24 | 15.25 ± 0.21 | 14.51 ± 0.2 | 13.97 ± 0.19

N#Cc1ccccc1 + Cc1ccccc1
viscosity [mPa·s], 100 kPa
Conditions | x1 = 0.1034 | x1 = 0.2113 | x1 = 0.3332 | x1 = 0.409 | x1 = 0.5093 | x1 = 0.6337 | x1 = 0.7569 | x1 = 0.879
303 K | 0.5391 ± 0.054 | 0.5612 ± 0.056 | 0.6226 ± 0.063 | 0.6592 ± 0.066 | 0.7016 ± 0.071 | 0.7812 ± 0.079 | 0.8795 ± 0.088 | 0.9682 ± 0.098
308 K | 0.5099 ± 0.051 | 0.5348 ± 0.054 | 0.6121 ± 0.062 | 0.6589 ± 0.066 | 0.7285 ± 0.073 | 0.7989 ± 0.08 | 0.8621 ± 0.087 | 0.9325 ± 0.094
313 K | 0.5068 ± 0.051 | 0.5399 ± 0.054 | 0.5908 ± 0.06 | 0.6325 ± 0.064 | 0.6985 ± 0.07 | 0.7545 ± 0.076 | 0.8319 ± 0.084 | 0.8819 ± 0.089

N#Cc1ccccc1 + ClC(Cl)(Cl)Cl
viscosity [mPa·s], 101 kPa
Conditions | 293.15 K | 298.15 K | 303.15 K | 313.15 K | 323.15 K
x1 = 0.005 | 0.986 ± 0.026 | 0.91 ± 0.02 | 0.845 ± 0.022 | 0.748 ± 0.02 | 0.669 ± 0.018
x1 = 0.009 | 1.008 ± 0.026 | 0.934 ± 0.024 | 0.871 ± 0.023 | 0.772 ± 0.02 | 0.694 ± 0.018
x1 = 0.045 | 1.005 ± 0.026 | 0.929 ± 0.024 | 0.863 ± 0.023 | 0.769 ± 0.02 | 0.691 ± 0.018

CCOCCOCCOCCO + ClC(Cl)=C(Cl)Cl
298.15 K, 101.33 kPa
Conditions | viscosity [mPa·s]
x1 = 0.0072 | 0.863 ± 0.009
x1 = 0.0185 | 0.892 ± 0.009
x1 = 0.0339 | 0.931 ± 0.009
x1 = 0.0489 | 0.969 ± 0.01
x1 = 0.0609 | 1.008 ± 0.01
x1 = 0.0867 | 1.081 ± 0.011
x1 = 0.1081 | 1.154 ± 0.011
x1 = 0.1487 | 1.29 ± 0.013
x1 = 0.1926 | 1.459 ± 0.014
x1 = 0.2354 | 1.634 ± 0.016
x1 = 0.2903 | 1.893 ± 0.019
x1 = 0.3204 | 2.052 ± 0.02
x1 = 0.3495 | 2.207 ± 0.022
x1 = 0.3887 | 2.429 ± 0.024
x1 = 0.4239 | 2.631 ± 0.026
x1 = 0.4633 | 2.863 ± 0.029
x1 = 0.5019 | 3.105 ± 0.032
x1 = 0.5442 | 3.384 ± 0.035
x1 = 0.5861 | 3.665 ± 0.038
x1 = 0.6345 | 4.013 ± 0.042
x1 = 0.6893 | 4.413 ± 0.047
x1 = 0.7441 | 4.852 ± 0.052
x1 = 0.8008 | 5.303 ± 0.058
x1 = 0.8471 | 5.684 ± 0.062
x1 = 0.9061 | 6.191 ± 0.068
x1 = 0.9387 | 6.486 ± 0.072
x1 = 0.9502 | 6.589 ± 0.073
x1 = 0.9795 | 6.871 ± 0.077
